Results as given in patent US10822322B2 (OCEANS LTD., priority 2016, dated 2020).

Legend:
[1] = tested on: SKOV3 (ovarian adenocarcinoma); assay: CIMA assay (tetrazolium reduction, cell viability), SKOV3; format: cell-based, human
Experimental: (§1) Stock solutions of the extracts were prepared in dimethylsulfoxide (DMSO) at 10 mg/mL and stored in 200 μl aliquots at −20° C. until analysis. This preparation ensured that the DMSO delivered to cells in culture never exceeded 1%.
(§2) Prepared extracts were assessed following chronic exposure conditions in which cells were seeded at 2×10^3 cells/well (96 wells-plate) and incubated with test compounds for 72 h. Each compound was evaluated over a range of concentrations (0, 10, 25, 50 or 100 μg/ml). Cell proliferation was initially assessed using a standard colorimetric indicator of metabolic activity (CIMA) assay. In this assay, tetrazole reduction was evaluated as a measure of metabolic function that evaluates mitochondrial activity to determine the extent of cell proliferation within a culture. This assay is based on the reduction of yellow tetrazolium salt to purple formazan by mitochondrial reductases enzyme in viable cells, resulting in a color changed that confers a change in absorbance. Six human cell lines were selected for primary evaluation: U373 (glioblastoma-astrocytoma), A549 (lung carcinoma), THP-1 (acute monocytic leukemia), MCF7 (mammary gland adenocarcinoma), SKOV3 (ovarian adenocarcinoma), and CCD1079SK (fibroblast, noncancerous but proliferating) (see FIG. 2 and Table 2). Table 3 expresses the IC50 for each extract.
(§3) These sub-fractions were again subjected to the bioassay evaluation presented above. Results are expressed in Table 8 as % viability (means±standard deviation of three replicates), with LD50/IC50 values in Table 9. […] The maximum DMSO concentration was 1% at 100 μg/ml with 5% SDS used as a known toxic inducer.

[2] = tested on: MCF7 (mammary gland adenocarcinoma); assay: CIMA assay (tetrazolium reduction, cell viability), MCF7; format: cell-based, human
Experimental: as §1
as §2, with “extract. […]” for “extract.”

[3] = tested on: CCD1079SK (fibroblast, noncancerous but proliferating); assay: CIMA assay (tetrazolium reduction, cell viability), CCD1079SK; format: cell-based, human
Experimental: as §1, §2, §3

[4] = tested on: U373 (glioblastoma-astrocytoma); assay: CIMA assay (tetrazolium reduction, cell viability), U373; format: cell-based, human
Experimental: as §1, §2, §3

[5] = tested on: THP-1 (acute monocytic leukemia); assay: CIMA assay (tetrazolium reduction, cell viability), THP-1; format: cell-based, human
Experimental: as §1, §2, §3

PC3 = assay: CIMA assay (tetrazolium reduction, cell viability), PC3; format: cell-based
A549 (lung carcinoma) = assay: CIMA assay (tetrazolium reduction, cell viability), A549; format: cell-based, human
Experimental: as §1, §2, §3

[6] = CIMA assay (tetrazolium reduction, cell viability), CCD1079SK; format: cell-based, human; details: human
Experimental: as §1, §2, §3

MDA-MB = assay: CIMA assay (cell viability), MDA-MB; format: cell-based
[7] = Homo sapiens, SK-OV-3, read-out: average cell viability
[8] = Homo sapiens, U373 MG, read-out: average cell viability
[9] = Homo sapiens, THP-1, read-out: average cell viability
[10] = Homo sapiens, PC-3, read-out: average cell viability
[11] = Homo sapiens, A549, read-out: average cell viability

In the case of CCCCCCCCCCCCOS(=O)(=O)[O-].[Na+] [SDS 5%, reference compound], the “% viability AVG” value [1] is reported as 90.7%, the “% viability AVG” value [2] is reported as 93.7% and the “% viability AVG” value [3] is reported as 87.9%. For the same compound, the “% viability AVG” value [4] was 78.5%, the “% viability AVG” value [5] was 39.9% and the “% viability AVG” value (PC3) was 94.4%. For the same compound, the cell viability AVG (PC3) was 77.3%, the “% viability AVG” value (A549 (lung carcinoma)) was 66.2% and the cell viability AVG (A549 (lung carcinoma)) was 68.7%.

CCCCCC(O)C(O)/C=C/C1CCCCCCCC(=O)O1 (stereo not drawn) [compound 31-34-5, 12,13-dihydroxy-10-octadecen-9-olide] showed a viability at 1 µg/mL [1, 7] of 97%, a viability at 10 µg/mL [1, 7] of 97% and a viability at 50 µg/mL [1, 7] of 94%. The viability at 100 µg/mL [1, 7] was 85%, the viability at 72 h, 1 µg/mL [6] was 91% and the viability at 72 h, 10 µg/mL [6] was 84%. The viability at 72 h, 50 µg/mL [6] was 90%, the viability at 72 h, 100 µg/mL [6] was 17% and the viability at 1 µg/mL [4, 8] was 90%. The viability at 10 µg/mL [4, 8] was 85%, the viability at 50 µg/mL [4, 8] was 68% and the viability at 100 µg/mL [4, 8] was 3%. For the same compound, the viability at 1 µg/mL [5, 9] was 96%, the viability at 10 µg/mL [5, 9] was 84% and the viability at 50 µg/mL [5, 9] was 68%. For the same compound, the viability at 100 µg/mL [5, 9] was 44%, the viability at 1 µg/mL (PC3; [10]) was 100% and the viability at 10 µg/mL (PC3; [10]) was 93%. It also gave a viability at 50 µg/mL (PC3; [10]) of 97%, a viability at 100 µg/mL (PC3; [10]) of 19% and a viability at 1 µg/mL (A549 (lung carcinoma); [11]) of 95%. The viability at 10 µg/mL (A549 (lung carcinoma); [11]) was 93%, the viability at 50 µg/mL (A549 (lung carcinoma); [11]) was 92% and the viability at 100 µg/mL (A549 (lung carcinoma); [11]) was 61%. For the same compound, the “fold change viability (AVG)” value (MDA-MB; 10 ug/mL) was 1.05, the “fold change viability (AVG)” value (MDA-MB; 50 ug/mL) was 0.72 and the viability at 1 µg/mL (MDA-MB; 1 Ug/mL) was 101%. It also gave a viability at 10 µg/mL (MDA-MB; 10 Ug/mL) of 96%, a viability at 50 µg/mL (MDA-MB; 50 Ug/mL) of 66% and a viability at 100 µg/mL (MDA-MB; 100 Ug/mL) of 20%.
